The test system of the test is C666-1 cells. The test is described as follows: C666-1 cell viability single concentration (50 μM) inhibition rate (Resazurin). The note with it: Homo sapiens, C6661, 72 h, 50 μM compound, 72 hours, C666-1 cells; read-out: C666-1 cell viability single concentration (50 μM) inhibition rate, Ratio* (Inh %). The class given is cell-based. The method, then:
In order to assess the effect of the EBNA1 inhibitor at the cellular level, the cell proliferation inhibition rate was tested, and the inhibition rate of inhibitor at a specific concentration on the proliferation of Epstein-Barr virus positive cell line C666-1 was detected.
In the test, 100 μL C666-1 cells were inoculated in a transparent 96-well plate, and each well contained 5×10^3 cells. After the cells were cultured in an incubator with 5% carbon dioxide at 37° C. for 24 hours, 10 μL compound at a concentration of 500 μmol/L was added into the cells, so that the final concentration of the compound was 50 μmol/L. Two replicate wells were set for each compound, the wells treated with DMSO were set as control wells (Ctrl), and the wells with cell culture medium only were set as blank wells (blank), and they were treated in the incubator with carbon dioxide at 37° C. for 72 hours. The cell viability was assessed using a redox indicator Resazurin. Specifically, 10 μL Resazurin at a concentration of 600 umol/L was added into each well, and incubated at 37° C. for 3 hours, and a Tecan microplate reader was used to detect the fluorescence signal at an excitation wavelength of 560 nm and an emission wavelength of 590 nm. The formula inh %=1−(F−Fblank)/(FCtrl−Fblank)×100% (where, F is the fluorescence intensity of the compound-added wells, FCtrl and Fblank are the readings of the control wells and blank wells, respectively) was used to calculate the inhibition rate of the compound on the proliferation of C666-1 cells, so as to assess the activity of the compound on Epstein-Barr virus positive cells.
For orientation: Resazurin is reduced to fluorescent resorufin, in cell work by metabolically active cells.

Consider `O=C(O)c1cccc(N2CC(Oc3ccc(CO)cc3)C2)c1` [Compound 35, 3-(3-(4-(hydroxymethyl)phenoxy)azetidin-1-yl)benzoic acid], for which the inhibition at 50 µM lay within 10 to 30%. Under `Nc1c(C(=O)O)cccc1N1CC(Oc2ccc(CO)cc2)C1` [Compound 36, 2-amino-3-(3-(4-(hydroxymethyl)phenoxy)azetidin-1-yl)benzoic acid] stands under 10%; under `COC(=O)c1cccc(N2CC(Oc3ccc(CO)cc3)C2)c1-n1cccc1` [Compound 37, Methyl 3-(3-(4-(hydroxymethyl)phenoxy)azetidin-1-yl)-2-(1H-pyrrol-1-yl)benzoate], 30 to 50%.

`O=C(O)c1cccc(N2CC(Oc3ccc(CO)cc3)C2)c1-n1cccc1` [Compound 38, 3-(3-(4-(hydroxymethyl)phenoxy)azetidin-1-yl)-2-(1H-pyrrol-1-yl)benzoic acid]: the inhibition at 50 µM is under 10%. Under `COC(=O)c1cccc(N2CC(Oc3ccc(CO)cc3)C2)c1-c1ccc2cc[nH]c2c1` [Compound 39, Methyl 3-(3-(4-(hydroxymethyl)phenoxy)azetidin-1-yl)-2-(1H-indol-6-yl)benzoate] stands 30 to 50%. In the case of `O=C(O)c1cccc(N2CC(Oc3ccc(CO)cc3)C2)c1-c1ccc2cc[nH]c2c1` [Compound 40, 3-(3-(4-(hydroxymethyl)phenoxy)azetidin-1-yl)-2-(1H-indol-6-yl)benzoic acid], the inhibition at 50 µM is under 10%. In the case of `COC(=O)c1cccc(N2CC(Oc3ccc(CO)cc3)C2)c1-c1ccccc1` [Compound 41, Methyl 6-(3-(4-(hydroxymethyl)phenoxy)azetidin-1-yl)-[1,1′-biphenyl]-2-formate], the inhibition at 50 µM lay in the range of 10 to 30%. Regarding `O=C(O)c1cccc(N2CC(Oc3ccc(CO)cc3)C2)c1-c1ccccc1` [Compound 42], the inhibition at 50 µM was under 10%. For `COC(=O)c1cccc(N2CC(Oc3ccc(CO)cc3)C2)c1-c1ccc2ccsc2c1` [Compound 43, Methyl 2-(benzo[b]thiophen-6-yl)-3-(3-(4-(hydroxymethyl)phenoxy)azetidin-1-yl)benzoate], the inhibition at 50 µM lay within 10 to 30%.

On to `O=C(O)c1cccc(N2CC(Oc3ccc(CO)cc3)C2)c1-c1ccc2ccsc2c1` [Compound 44, 2-(benzo[b]thiophen-6-yl)-3-(3-(4-(hydroxymethyl)phenoxy)azetidin-1-yl)benzoic acid], for which the inhibition at 50 µM is under 10%.

With `COC(=O)c1cccc(N2CC(Oc3ccc(CO)cc3)C2)c1-c1ccc2nsnc2c1` [Compound 45, Methyl 2-(benzo[c][1,2,5]thiadiazol-5-yl)-3-(3-(4-(hydroxymethyl)phenoxy)azetidin-1-yl)benzoate], the inhibition at 50 µM was in the range of 10 to 30%.

As for `O=C(O)c1cccc(N2CC(Oc3ccc(CO)cc3)C2)c1-c1ccc2nsnc2c1` [Compound 46], the inhibition at 50 µM is under 10%. Turning to `COC(=O)c1cccc(N2CC(Oc3ccc(CO)cc3)C2)c1-c1ccco1` [Compound 47], the inhibition at 50 µM was in the range of 30 to 50%.

With `COC(=O)c1cccc(N2CC(Oc3ccc(CO)cc3)C2)c1-c1ccoc1` [Compound 48], the inhibition at 50 µM was over 50%.

Turning to `O=C(O)c1cccc(N2CC(Oc3ccc(CO)cc3)C2)c1-c1ccoc1` [Compound 49], the inhibition at 50 µM was under 10%. To `COC(=O)c1cccc(N2CC(Oc3ccc(CO)cc3)C2)c1-c1cccc(F)c1` [Compound 50] belongs 10 to 30%; to `O=C(O)c1cccc(N2CC(Oc3ccc(CO)cc3)C2)c1-c1cccc(F)c1` [Compound 51], under 10%; to `O=C(O)c1cccc(N2CC(Oc3ccc(CO)cc3)C2)c1-c1ccc2ccoc2c1` [Compound 52], under 10%. To `COC(=O)c1cccc(N2CC(Oc3ccc(CO)cc3)C2)c1-c1cccc(Cl)c1` [Compound 53, Methyl 3′-chloro-6-(3-(4-(hydroxymethyl)phenoxy)azetidin-1-yl)-[1,1′-biphenyl]-2-formate] belongs 10 to 30%; to `O=C(O)c1cccc(N2CC(Oc3ccc(CO)cc3)C2)c1-c1cccc(Cl)c1` [Compound 54], 30 to 50%; to `COC(=O)c1cccc(N2CC(Oc3ccc(CO)cc3)C2)c1-c1cccc(C#N)c1` [Compound 55], 10 to 30%. To `O=C(O)c1cccc(-c2c(C(=O)O)cccc2N2CC(Oc3ccc(CO)cc3)C2)c1` [Compound 56] belongs under 10%. For `COC(=O)c1cccc(N2CC(Oc3ccc(CO)cc3)C2)c1-c1ccc(Cl)cc1` [Compound 57], the inhibition at 50 µM was 10 to 30%.

In the case of `O=C(O)c1cccc(N2CC(Oc3ccc(CO)cc3)C2)c1-c1ccc(Cl)cc1` [Compound 58, 4′-chloro-6-(3-(4-(hydroxymethyl)phenoxy)azetidin-1-yl)-[1,1′-biphenyl]-2-formic acid], the inhibition at 50 µM is under 10%. Under `COC(=O)c1cccc(N2CC(Oc3ccc(CO)cc3)C2)c1-c1cccc(C(F)(F)F)c1` [Compound 59, Methyl 3′-(trifluoromethyl)-6-(3-(4-(hydroxymethyl)phenoxy)azetidin-1-yl)-[1,1′-biphenyl]-2-formate] stands 10 to 30%; under `O=C(O)c1cccc(N2CC(Oc3ccc(CO)cc3)C2)c1-c1cccc(C(F)(F)F)c1` [Compound 60, 3′-(trifluoromethyl)-6-(3-(4-(hydroxymethyl)phenoxy)azetidin-1-yl)-[1,1′-biphenyl]-2-formic acid], under 10%. To `COC(=O)c1cccc(N2CC(Oc3ccc(CO)cc3)C2)c1-c1cc(F)cc(F)c1` [Compound 61, Methyl 3′,5′-difluoro-6-(3-(4-(hydroxymethyl)phenoxy)azetidin-1-yl)-[1,1′-biphenyl]-2-formate] belongs 10 to 30%. Turning to `O=C(O)c1cccc(N2CC(Oc3ccc(CO)cc3)C2)c1-c1cc(F)cc(F)c1` [Compound 62, 3′,5′-difluoro-6-(3-(4-(hydroxymethyl)phenoxy)azetidin-1-yl)-[1,1′-biphenyl]-2-formic acid], the inhibition at 50 µM was under 10%.

On to `COC(=O)c1cccc(N2CC(Oc3ccc(CO)cc3)C2)c1-c1ccc(-c2ccccc2)cc1` [Compound 63, Methyl 6-(3-(4-(hydroxymethyl)phenoxy)azetidin-1-yl)-[1,1′:4′,1″-terphenyl]-2-formate], for which the inhibition at 50 µM was in the range of 10 to 30%. To `O=C(O)c1cccc(N2CC(Oc3ccc(CO)cc3)C2)c1-c1ccc(-c2ccccc2)cc1` [Compound 64, 6-(3-(4-(hydroxymethyl)phenoxy)azetidin-1-yl)-[1,1′:4′,1″-terphenyl]-2-formic acid] belongs over 50%; to `COC(=O)c1cccc(N2CC(Oc3ccc(CO)cc3)C2)c1-c1cccc(NS(C)(=O)=O)c1` [Compound 65, Methyl 3′-(methylsulfonamido)-6-(3-(4-(hydroxymethyl)phenoxy)azetidin-1-yl)-[1,1′-biphenyl]-2-formate], 30 to 50%; to `COC(=O)c1cccc(N2CC(Oc3ccc(CO)cc3)C2)c1-c1cccc(OC)c1` [Compound 66, Methyl 3′-methoxy-6-(3-(4-(hydroxymethyl)phenoxy)azetidin-1-yl)-[1,1′-biphenyl]-2-formate], 30 to 50%. With `COc1cccc(-c2c(C(=O)O)cccc2N2CC(Oc3ccc(CO)cc3)C2)c1` [Compound 67, 3′-methoxy-6-(3-(4-(hydroxymethyl)phenoxy)azetidin-1-yl)-[1,1′-biphenyl]-2-formic acid], the inhibition at 50 µM is under 10%. Consider `COC(=O)c1cccc(N2CC(Oc3ccc(CO)cc3)C2)c1-c1ccc(F)c(C#N)c1` [Compound 68, Methyl 3′-cyano-4′-fluoro-6-(3-(4-(hydroxymethyl)phenoxy)azetidin-1-yl)-[1,1′-biphenyl]-2-formate], for which the inhibition at 50 µM lay in the range of 10 to 30%. To `COC(=O)c1cccc(N2CC(Oc3ccc(CO)cc3)C2)c1-n1cccn1` [Compound 69, Methyl 3-(3-(4-(hydroxymethyl)phenoxy)azetidin-1-yl)-2-(1H-pyrazol-1-yl)benzoate] belongs 10 to 30%.

Consider `O=C(O)c1cccc(N2CC(Oc3ccc(CO)cc3)C2)c1-n1cccn1` [Compound 70, 3-(3-(4-(hydroxymethyl)phenoxy)azetidin-1-yl)-2-(1H-pyrazol-1-yl)benzoic acid], for which the inhibition at 50 µM was under 10%. Regarding `O=C(O)c1cccc(OC2CN(c3cccc(C(=O)NCc4ccccc4)c3)C2)c1` [Compound 71, 3-((1-(3-(benzylcarbamoyl)phenyl)azetidin-3-yl)oxy)benzoic acid], the inhibition at 50 µM was under 10%. For `Nc1c(C(=O)O)cccc1N1CC(Oc2cccc(C(=O)O)c2)C1` [Compound 72, 3-(3-(3-carboxylphenoxy)azetidin-1-yl)-2-aminobenzoic acid], the inhibition at 50 µM is under 10%. `O=C(O)c1cccc(OC2CN(c3cccc(C(=O)O)c3-n3cccc3)C2)c1` [Compound 73, 3-(3-(3-carboxylphenoxy)azetidin-1-yl)-2-(1H-pyrrol-1-yl)benzoic acid]: the inhibition at 50 µM was under 10%.

Consider `COC(=O)c1cccc(N2CC(Oc3ccc(COC(C)=O)cc3)C2)c1-n1cccc1` [Compound 74, Methyl 3-(3-(4-(acetoxylmethyl)phenoxy)azetidin-1-yl)-2-(1H-pyrrol-1-yl)benzoate], for which the inhibition at 50 µM was under 10%.
